From US20050197350A1, “Novel quinoline, tetrahydroquinazoline, and pyrimidine derivatives and methods of treatment related to the use thereof” (TAISHO PHARMACEUTICAL CO., LTD., priority 2003, published 2005)

Each compound was assayed on MCH receptors (assay: MCH receptor activity class (method not given)). Conditions: class by percent of control at 10^−7 M or IC50.

Compound	class
Cc1cc(N(C)C)nc(NC[C@H]2CC[C@@H](NC(=O)c3ccc(C(F)(F)F)c(F)c3)CC2)n1 [compound 2747]	3 (Class 3 The value of percent of control at 10^−7 M was more than 60% or the value of IC50 was more than 200 nM.)
Cc1cc(N(C)C)nc(NC[C@H]2CC[C@@H](NC(=O)c3cc(Cl)cc(Cl)c3)CC2)n1 [compound 2748]	2 (Class 2: The value of percent of control at 10^−7 M was from 40% to 60% or the value of IC′50 was from 50 nM to 200 nM.)
Cc1cc(N(C)C)nc(NC[C@H]2CC[C@@H](NC(=O)c3ccc(Cl)c(Cl)c3)CC2)n1 [compound 2749]	2 (Class 2: The value of percent of control at 10^−7 M was from 40% to 60% or the value of IC′50 was from 50 nM to 200 nM.)
Cc1cc(N(C)C)nc(NC[C@H]2CC[C@@H](NC(=O)c3ccc4c(c3)OC(F)(F)O4)CC2)n1 [compound 2750]	3 (Class 3 The value of percent of control at 10^−7 M was more than 60% or the value of IC50 was more than 200 nM.)
Cc1cc(N(C)C)nc(N[C@H]2CC[C@@H](CNC(=O)c3ccccc3)CC2)n1 [compound 2751, N-[(cis-4-{[4-(dimethylamino)-6-methylpyrimidin-2-yl]amino}cyclohexyl)methyl]benzamide]	3 (Class 3 The value of percent of control at 10^−7 M was more than 60% or the value of IC50 was more than 200 nM.)
Cc1ccc(C(=O)NC[C@H]2CC[C@@H](Nc3nc(C)cc(N(C)C)n3)CC2)cc1 [compound 2752]	3 (Class 3 The value of percent of control at 10^−7 M was more than 60% or the value of IC50 was more than 200 nM.)
Cc1cc(N(C)C)nc(N[C@H]2CC[C@@H](CNC(=O)c3ccc(F)c(F)c3)CC2)n1 [compound 2753, N-[(cis-4-{[4-(dimethylamino)-6-methylpyrimidin-2-yl]amino}cyclohexyl)methyl]-3,4-difluorobenzamide]	3 (Class 3 The value of percent of control at 10^−7 M was more than 60% or the value of IC50 was more than 200 nM.)
COc1ccc(C(=O)NC[C@H]2CC[C@@H](Nc3nc(C)cc(N(C)C)n3)CC2)cc1 [compound 2754]	3 (Class 3 The value of percent of control at 10^−7 M was more than 60% or the value of IC50 was more than 200 nM.)
Cc1cc(N(C)C)nc(N[C@H]2CC[C@@H](CNC(=O)c3ccc(C)c(F)c3)CC2)n1 [compound 2755]	2 (Class 2: The value of percent of control at 10^−7 M was from 40% to 60% or the value of IC′50 was from 50 nM to 200 nM.)
Cc1cc(N(C)C)nc(N[C@H]2CC[C@@H](CNC(=O)c3ccc(F)c(C)c3)CC2)n1 [compound 2756]	3 (Class 3 The value of percent of control at 10^−7 M was more than 60% or the value of IC50 was more than 200 nM.)
Cc1cc(N(C)C)nc(N[C@H]2CC[C@@H](CNC(=O)c3cccc(C(F)(F)F)c3)CC2)n1 [compound 2757]	3 (Class 3 The value of percent of control at 10^−7 M was more than 60% or the value of IC50 was more than 200 nM.)
Cc1cc(N(C)C)nc(N[C@H]2CC[C@@H](CNC(=O)c3ccc(C(F)(F)F)cc3)CC2)n1 [compound 2758]	2 (Class 2: The value of percent of control at 10^−7 M was from 40% to 60% or the value of IC′50 was from 50 nM to 200 nM.)
Cc1cc(N(C)C)nc(N[C@H]2CC[C@@H](CNC(=O)c3cccc(OC(F)(F)F)c3)CC2)n1 [compound 2759]	3 (Class 3 The value of percent of control at 10^−7 M was more than 60% or the value of IC50 was more than 200 nM.)
Cc1cc(N(C)C)nc(N[C@H]2CC[C@@H](CNC(=O)c3ccc(OC(F)(F)F)cc3)CC2)n1 [compound 2760]	3 (Class 3 The value of percent of control at 10^−7 M was more than 60% or the value of IC50 was more than 200 nM.)
Cc1cc(N(C)C)nc(N[C@H]2CC[C@@H](CNC(=O)c3ccc(C#N)cc3)CC2)n1 [compound 2761]	3 (Class 3 The value of percent of control at 10^−7 M was more than 60% or the value of IC50 was more than 200 nM.)
Cc1cc(N(C)C)nc(N[C@H]2CC[C@@H](CNC(=O)c3ccc(Br)cc3)CC2)n1 [compound 2762]	1 (Class 1: The value of percent of control at 10^−7 M was less than 40% or the value of IC50 was less than 50 nM.)

Compound	class
Cc1cc(N(C)C)nc(N[C@H]2CC[C@@H](CNC(=O)c3ccc(Br)c(C)c3)CC2)n1 [compound 2763]	1 (Class 1: The value of percent of control at 10^−7 M was less than 40% or the value of IC50 was less than 50 nM.)
Cc1cc(N(C)C)nc(N[C@H]2CC[C@@H](CNC(=O)c3ccc(F)c(Cl)c3)CC2)n1 [compound 2764]	1 (Class 1: The value of percent of control at 10^−7 M was less than 40% or the value of IC50 was less than 50 nM.)
Cc1cc(N(C)C)nc(N[C@H]2CC[C@@H](CNC(=O)c3ccc(C(F)(F)F)c(F)c3)CC2)n1 [compound 2765]	2 (Class 2: The value of percent of control at 10^−7 M was from 40% to 60% or the value of IC′50 was from 50 nM to 200 nM.)
Cc1cc(N(C)C)nc(N[C@H]2CC[C@@H](CNC(=O)c3cc(Cl)cc(Cl)c3)CC2)n1 [compound 2766, 3,5-dichloro-N-[(cis-4-{[4-(dimethylamino)-6-methylpyrimidin-2-yl]amino}cyclohexyl)methyl]benzamide]	2 (Class 2: The value of percent of control at 10^−7 M was from 40% to 60% or the value of IC′50 was from 50 nM to 200 nM.)
Cc1cc(N(C)C)nc(N[C@H]2CC[C@@H](CNC(=O)c3ccc(Cl)c(Cl)c3)CC2)n1 [compound 2767]	2 (Class 2: The value of percent of control at 10^−7 M was from 40% to 60% or the value of IC′50 was from 50 nM to 200 nM.)
Cc1cc(N(C)C)nc(N[C@H]2CC[C@@H](CNC(=O)c3ccc(Cl)cc3)CC2)n1 [compound 2770, 4-chloro-N-[(cis-4-{[4-(dimethylamino)-6-methylpyrimidin-2-yl]amino}cyclohexyl)methyl]benzamide]	2 (Class 2: The value of percent of control at 10^−7 M was from 40% to 60% or the value of IC′50 was from 50 nM to 200 nM.)
Cc1cnc(N[C@H]2CC[C@@H](C(=O)N[C@H](C)c3ccccc3)CC2)nc1N(C)C [compound 2771, cis-4-{[4-(dimethylamino)-5-methylpyrimidin-2-yl]amino}-N-[(1R)-1-phenylethyl]cyclohexanecarboxamide]	2 (Class 2: The value of percent of control at 10^−7 M was from 40% to 60% or the value of IC′50 was from 50 nM to 200 nM.)
Cc1ccc([C@H](C)NC(=O)[C@H]2CC[C@@H](Nc3ncc(C)c(N(C)C)n3)CC2)cc1 [compound 2772, cis-4-{[4-(dimethylamino)-5-methylpyrimidin-2-yl]amino}-N-[(1S)-1-(4-methylphenyl)ethyl]cyclohexanecarboxamide]	1 (Class 1: The value of percent of control at 10^−7 M was less than 40% or the value of IC50 was less than 50 nM.)
Cc1cnc(N[C@H]2CC[C@@H](C(=O)N[C@H](C)c3ccc(F)cc3)CC2)nc1N(C)C [compound 2773, cis-4-{[4-(dimethylamino)-5-methylpyrimidin-2-yl]amino}-N-[(1R)-1-(4-fluorophenyl)ethyl]cyclohexanecarboxamide]	1 (Class 1: The value of percent of control at 10^−7 M was less than 40% or the value of IC50 was less than 50 nM.)
Cc1cnc(N[C@H]2CC[C@@H](C(=O)N[C@@H](C)c3ccc(F)cc3)CC2)nc1N(C)C [compound 2774, cis-4-{[4-(dimethylamino)-5-methylpyrimidin-2-yl]amino}-N-[(1S)-1-(4-fluorophenyl)ethyl]cyclohexanecarboxamide]	2 (Class 2: The value of percent of control at 10^−7 M was from 40% to 60% or the value of IC′50 was from 50 nM to 200 nM.)
COc1cccc([C@@H](C)NC(=O)[C@H]2CC[C@@H](Nc3ncc(C)c(N(C)C)n3)CC2)c1 [compound 2775, cis-4-{[4-(dimethylamino)-5-methylpyrimidin-2-yl]amino}-N-[(1R)-1-(3-methoxyphenyl)ethyl]cyclohexanecarboxamide]	1 (Class 1: The value of percent of control at 10^−7 M was less than 40% or the value of IC50 was less than 50 nM.)
COc1cccc([C@H](C)NC(=O)[C@H]2CC[C@@H](Nc3ncc(C)c(N(C)C)n3)CC2)c1 [compound 2776, cis-4-{[4-(dimethylamino)-5-methylpyrimidin-2-yl]amino}-N-[(1S)-1-(3-methoxyphenyl)ethyl]cyclohexanecarboxamide]	1 (Class 1: The value of percent of control at 10^−7 M was less than 40% or the value of IC50 was less than 50 nM.)
COc1ccc([C@H](C)NC(=O)[C@H]2CC[C@@H](Nc3ncc(C)c(N(C)C)n3)CC2)cc1 [compound 2777, cis-4-{[4-(dimethylamino)-5-methylpyrimidin-2-yl]amino}-N-[(1S)-1-(4-methoxyphenyl)ethyl]cyclohexanecarboxamide]	1 (Class 1: The value of percent of control at 10^−7 M was less than 40% or the value of IC50 was less than 50 nM.)
Cc1cnc(N[C@H]2CC[C@@H](C(=O)N[C@H](C)c3ccc(Cl)cc3)CC2)nc1N(C)C [compound 2778, cis-N-[(1R)-1-(4-chlorophenyl)ethyl]-4-{[4-(dimethylamino)-5-methylpyrimidin-2-yl]amino}cyclohexanecarboxamide]	1 (Class 1: The value of percent of control at 10^−7 M was less than 40% or the value of IC50 was less than 50 nM.)
Cc1cnc(N[C@H]2CC[C@@H](C(=O)N[C@H](C)c3ccc([N+](=O)[O-])cc3)CC2)nc1N(C)C [compound 2780, cis-4-{[4-(dimethylamino)-5-methylpyrimidin-2-yl]amino}-N-[(1R)-1-(4-nitrophenyl)ethyl]cyclohexanecarboxamide]	1 (Class 1: The value of percent of control at 10^−7 M was less than 40% or the value of IC50 was less than 50 nM.)
Cc1cnc(N[C@H]2CC[C@@H](C(=O)N[C@@H](C)c3ccc([N+](=O)[O-])cc3)CC2)nc1N(C)C [compound 2781, cis-4-{[4-(dimethylamino)-5-methylpyrimidin-2-yl]amino}-N-[(1S)-1-(4-nitrophenyl)ethyl]cyclohexanecarboxamide]	2 (Class 2: The value of percent of control at 10^−7 M was from 40% to 60% or the value of IC′50 was from 50 nM to 200 nM.)
